Where two headings read alike, the source gives them in different places.

Data on 23 compounds can be found in patent US9266876B2 (Actelion Pharmaceuticals Ltd., priority 2012, dated 2016).

Test [1] concerns the target CXCR3 (Homo sapiens (Human), UniProt P49682). Briefly: Receptor internalization assay. Format: cell-based. In a few lines: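 In human whole blood, compounds were incubated with CXCL10 (9 nM final) for 30 min at 37 °C to drive receptor internalization, then stained with anti-CXCR3/CD3 antibodies and lysed of red cells. Flow cytometry measured mean surface CXCR3 fluorescence on CD3+ cells, and IC50 came from single-site dose-response fits.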

For test [2], the target named is human CXCR3A (Homo sapiens (Human), UniProt P49682). Briefly: FLIPR assay. It is filed as cell-based. Particulars: CHO-K1 cells expressing the human CXCR3A coupled to Galpha(16); CXCL10 agonist 20 nM; Fluo-4-AM fluorescence; mean values if determined several times. In a few lines:
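CHO-K1 cells expressing CXCR3A coupled to Gα16 were loaded with Fluo-4-AM for 1 h in Hepes-buffered HBSS, pH 7.4, with 5 mM probenecid. Compound dilutions were added on the FLIPR, followed by CXCL10 (added as a 20 nM solution). Baseline-subtracted peak fluorescence was fitted to a single-site curve for IC50.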

Setting [3] is: human whole blood, final CXCL10 concentration 9 nM, 30 min 37° C., CXCR3 cell surface expression on CD3 positive cells, flow cytometer, read-out: Internalization IC50.

Chain of human CXCR3A (P49682 whole entry): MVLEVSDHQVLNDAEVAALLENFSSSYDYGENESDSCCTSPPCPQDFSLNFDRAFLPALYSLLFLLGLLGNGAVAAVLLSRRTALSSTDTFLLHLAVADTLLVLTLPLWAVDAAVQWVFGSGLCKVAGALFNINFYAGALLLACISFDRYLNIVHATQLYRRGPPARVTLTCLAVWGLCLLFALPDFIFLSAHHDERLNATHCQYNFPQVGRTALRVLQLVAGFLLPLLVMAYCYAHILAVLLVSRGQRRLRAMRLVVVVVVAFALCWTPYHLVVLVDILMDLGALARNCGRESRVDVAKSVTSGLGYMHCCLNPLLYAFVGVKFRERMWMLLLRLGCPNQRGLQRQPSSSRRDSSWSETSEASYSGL
Chain of CXCR3 (P49682 whole entry): as above

For orientation: IC50 means the point on the concentration scale where inhibition reaches its midpoint. Regarding `C[C@@H]1CN(c2scnc2-c2nc3ccccc3[nH]2)CCN1C(=O)Cn1ccc2ccnc(Cl)c21` [Example 142, 1-{(R)-4-[4-(1H-Benzoimidazol-2-yl)-thiazol-5-yl]-2-methyl-piperazin-1-yl}-2-(7-chloro-pyrrolo[2,3-c]pyridin-1-yl)-ethanone], the half-maximal inhibitory concentration (IC50) turned out to be 352 nM in test [1] (setting [3]) and 2 nM in test [2].

With `C[C@@H]1CN(c2scnc2-c2nc3ccccc3[nH]2)CCN1C(=O)Cn1cc(Cl)c2cccnc21` [Example 143, 1-{(R)-4-[4-(1H-Benzoimidazol-2-yl)-thiazol-5-yl]-2-methyl-piperazin-1-yl}-2-(3-chloro-pyrrolo[2,3-b]pyridin-1-yl)-ethanone], the 50% inhibitory concentration (IC50) in test [1] (setting [3]) turned out to be 723 nM; in test [2] it was 1 nM.

Consider `Cc1nc(-c2nc3ccccc3[nH]2)c(N2CCN(C(=O)Cn3cnc4cccnc43)[C@H](C)C2)s1` [Example 144, 1-{(R)-4-[4-(1H-Benzoimidazol-2-yl)-2-methyl-thiazol-5-yl]-2-methyl-piperazin-1-yl}-2-imidazo[4,5-b]pyridin-3-yl-ethanone], for which the IC50 in test [1] (setting [3]) was determined as 933 nM; in test [2], 2 nM.

Consider `C[C@@H]1CN(c2sc(C(F)(F)F)nc2-c2nc3cc(Cl)ccc3[nH]2)CCN1C(=O)Cn1cnc2cccnc21` [Example 147, 1-{(R)-4-[4-(5-Chloro-1H-benzoimidazol-2-yl)-2-trifluoromethyl-thiazol-5-yl]-2-methyl-piperazin-1-yl}-2-imidazo[4,5-b]pyridin-3-yl-ethanone], for which the IC50 was 39 nM in test [1] and 1 nM in test [2].

Regarding `C[C@@H]1CN(c2sc(-c3ccccc3F)nc2-c2nc3ccccc3[nH]2)CCN1C(=O)Cn1cnc2cccnc21` [Example 148, 1-{(R)-4-[4-(1H-Benzoimidazol-2-yl)-2-(2-fluoro-phenyl)-thiazol-5-yl]-2-methyl-piperazin-1-yl}-2-imidazo[4,5-b]pyridin-3-yl-ethanone], the IC50 was 4490 nM in test [1] (setting [3]) and 24 nM in test [2].

In the case of `Cc1cccc(-c2nc(-c3nc4ccccc4[nH]3)c(N3CCN(C(=O)Cn4cnc5cccnc54)[C@H](C)C3)s2)c1` [Example 149, 1-{(R)-4-[4-(1H-Benzoimidazol-2-yl)-2-m-tolyl-thiazol-5-yl]-2-methyl-piperazin-1-yl}-2-imidazo[4,5-b]pyridin-3-yl-ethanone], the half-maximal inhibitory concentration (IC50) in test [1] (setting [3]) came out at 5070 nM; in test [2], 16 nM.

On to `Cc1ccc(-c2nc(-c3nc4ccccc4[nH]3)c(N3CCN(C(=O)Cn4cnc5cccnc54)[C@H](C)C3)s2)cc1` [Example 150, 1-{(R)-4-[4-(1H-Benzoimidazol-2-yl)-2-p-tolyl-thiazol-5-yl]-2-methyl-piperazin-1-yl}-2-imidazo[4,5-b]pyridin-3-yl-ethanone], for which the results for the IC50 in test [1] (setting [3]) and in test [2] were 5680 nM and 45 nM, respectively.

With `C[C@@H]1CN(c2scnc2-c2nc3ccccc3[nH]2)CCN1C(=O)CN1C(=O)C(C)(C)c2ccccc21` [Example 151, 1-(2-{(R)-4-[4-(1H-Benzoimidazol-2-yl)-thiazol-5-yl]-2-methyl-piperazin-1-yl}-2-oxo-ethyl)-3,3-dimethyl-1,3-dihydro-indol-2-one], the IC50 in test [1] (setting [3]) is 547 nM; in test [2], 4 nM.

As to `Cc1cccc2oc(=O)n(CC(=O)N3CCN(c4scnc4-c4nc5ccccc5[nH]4)C[C@H]3C)c12` [Example 152, 3-(2-{(R)-4-[4-(1H-Benzoimidazol-2-yl)-thiazol-5-yl]-2-methyl-piperazin-1-yl}-2-oxo-ethyl)-4-methyl-3H-benzooxazol-2-one], the values for the IC50 in test [1] (setting [3]) and in test [2] were 663 nM and 3 nM, respectively.

Turning to `C[C@@H]1CN(c2scnc2-c2nc3ccccc3[nH]2)CCN1C(=O)Cn1c(=O)oc2cccc(F)c21` [Example 153, 3-(2-{(R)-4-[4-(1H-Benzoimidazol-2-yl)-thiazol-5-yl]-2-methyl-piperazin-1-yl}-2-oxo-ethyl)-4-fluoro-3H-benzooxazol-2-one], the IC50 was 1030 nM in test [1] (setting [3]) and 7 nM in test [2].

For the compound `C[C@@H]1CN(c2scnc2-c2nc3ccccc3[nH]2)CCN1C(=O)Cn1c(CO)cc2cccnc21` [Example 154, 1-{(R)-4-[4-(1H-Benzoimidazol-2-yl)-thiazol-5-yl]-2-methyl-piperazin-1-yl}-2-(2-hydroxymethyl-pyrrolo[2,3-b]pyridin-1-yl)-ethanone], the IC50 in test [1] (setting [3]) came out at 3040 nM; in test [2] it was 14 nM.

`C[C@@H]1CN(c2scnc2-c2nc3ccccc3[nH]2)CCN1C(=O)Cn1c(=O)oc2cccnc21` [Example 155, 3-(2-{(R)-4-[4-(1H-Benzoimidazol-2-yl)-thiazol-5-yl]-2-methyl-piperazin-1-yl}-2-oxo-ethyl)-3H-oxazolo[4,5-b]pyridin-2-one]: the IC50 in test [1] (setting [3]) was 1100 nM; in test [2], 6 nM.

Regarding `COc1cc2nc(-c3ncsc3N3CCN(C(=O)Cn4cnc5cccnc54)[C@H](C)C3)[nH]c2cc1OC` [Example 158, 1-{(R)-4-[4-(5,6-Dimethoxy-1H-benzoimidazol-2-yl)-thiazol-5-yl]-2-methyl-piperazin-1-yl}-2-imidazo[4,5-b]pyridin-3-yl-ethanone], the IC50 came to 3430 nM in test [1] (setting [3]) and 5 nM in test [2].

For `C[C@@H]1CN(c2scnc2-c2nc3ccc(CO)cc3[nH]2)CCN1C(=O)Cn1cnc2cccnc21` [Example 159, 1-{(R)-4-[4-(6-Hydroxymethyl-1H-benzoimidazol-2-yl)-thiazol-5-yl]-2-methyl-piperazin-1-yl}-2-imidazo[4,5-b]pyridin-3-yl-ethanone], the IC50 in test [1] (setting [3]) worked out at 1540 nM; in test [2] it was 1 nM.

As for `C[C@@H]1CN(c2sc(C(F)(F)F)nc2-c2nc3ccc(CO)cc3[nH]2)CCN1C(=O)Cn1cnc2cccnc21` [Example 160, 1-{(R)-4-[4-(6-Hydroxymethyl-1H-benzoimidazol-2-yl)-2-trifluoromethyl-thiazol-5-yl]-2-methyl-piperazin-1-yl}-2-imidazo[4,5-b]pyridin-3-yl-ethanone], the figures for the half-inhibitory concentration (IC50) in test [1] (setting [3]) and in test [2] were 92 nM and 2 nM, respectively.

Consider `COc1cc2nc(-c3nc(C(F)(F)F)sc3N3CCN(C(=O)Cn4cnc5cccnc54)[C@H](C)C3)[nH]c2cc1OC` [Example 161, 1-{(R)-4-[4-(5,6-Dimethoxy-1H-benzoimidazol-2-yl)-2-trifluoromethyl-thiazol-5-yl]-2-methyl-piperazin-1-yl}-2-imidazo[4,5-b]pyridin-3-yl-ethanone], for which the IC50 in test [1] (setting [3]) is 146 nM; in test [2], 2 nM.

Consider `C[C@@H]1CN(c2scnc2-c2nc3ccc(C4CC4)cc3[nH]2)CCN1C(=O)Cn1cnc2cccnc21` [Example 162, 1-{(R)-4-[4-(6-Cyclopropyl-1H-benzoimidazol-2-yl)-thiazol-5-yl]-2-methyl-piperazin-1-yl}-2-imidazo[4,5-b]pyridin-3-yl-ethanone], for which the half-inhibitory concentration (IC50) in test [1] (setting [3]) was determined as 181 nM; in test [2] it was 1 nM.

As for `COCCOc1ccc2[nH]c(-c3nc(C(F)(F)F)sc3N3CCN(C(=O)Cn4cnc5cccnc54)[C@H](C)C3)nc2c1` [Example 163, 2-Imidazo[4,5-b]pyridin-3-yl-1-((R)-4-{4-[5-(2-methoxy-ethoxy)-1H-benzoimidazol-2-yl]-2-trifluoromethyl-thiazol-5-yl}-2-methyl-piperazin-1-yl)-ethanone], the IC50 is 47 nM in test [1] (setting [3]) and 5 nM in test [2].

Consider `C[C@@H]1CN(c2sc(C(F)(F)F)nc2-c2nc3cc(OCCO)ccc3[nH]2)CCN1C(=O)Cn1cnc2cccnc21` [Example 164, 1-((R)-4-{4-[5-(2-Hydroxy-ethoxy)-1H-benzoimidazol-2-yl]-2-trifluoromethyl-thiazol-5-yl}-2-methyl-piperazin-1-yl)-2-imidazo[4,5-b]pyridin-3-yl-ethanone], for which the IC50 in test [1] (setting [3]) was 93 nM; in test [2], 1 nM.

In the case of `CC(=O)c1ccc2[nH]c(-c3nc(C(F)(F)F)sc3N3CCN(C(=O)Cn4cnc5cccnc54)[C@H](C)C3)nc2c1` [Example 165, 1-{(R)-4-[4-(5-Acetyl-1H-benzoimidazol-2-yl)-2-trifluoromethyl-thiazol-5-yl]-2-methyl-piperazin-1-yl}-2-imidazo[4,5-b]pyridin-3-yl-ethanone], the concentration for half-maximal inhibition (IC50) in test [1] (setting [3]) came to 98 nM; in test [2] it was 1 nM.

As to `CC(O)c1ccc2[nH]c(-c3nc(C(F)(F)F)sc3N3CCN(C(=O)Cn4cnc5cccnc54)[C@H](C)C3)nc2c1` (stereo partly drawn) [Example 166, 1-((R)-4-{4-[5-(1-Hydroxy-ethyl)-1H-benzoimidazol-2-yl]-2-trifluoromethyl-thiazol-5-yl}-2-methyl-piperazin-1-yl)-2-imidazo[4,5-b]pyridin-3-yl-ethanone], the IC50 in test [1] (setting [3]) was found to be 111 nM; in test [2], 1 nM.

Turning to `COC(=O)c1ccc2[nH]c(-c3nc(C(F)(F)F)sc3N3CCN(C(=O)Cn4cnc5cccnc54)[C@H](C)C3)nc2c1` [Example 167, 2-{5-[(R)-4-(2-Imidazo[4,5-b]pyridin-3-yl-acetyl)-3-methyl-piperazin-1-yl]-2-trifluoromethyl-thiazol-4-yl}-1H-benzoimidazole-5-carboxylic acid methyl ester], the IC50 in test [1] (setting [3]) worked out at 140 nM; in test [2], 1 nM.

In the case of `C[C@@H]1CN(c2sc(C(F)(F)F)nc2-c2nc3cc(C4(O)CC4)ccc3[nH]2)CCN1C(=O)Cn1cnc2cccnc21` [Example 168, 1-((R)-4-{4-[5-(1-Hydroxy-cyclopropyl)-1H-benzoimidazol-2-yl]-2-trifluoromethyl-thiazol-5-yl}-2-methyl-piperazin-1-yl)-2-imidazo[4,5-b]pyridin-3-yl-ethanone], the IC50 in test [1] (setting [3]) is 435 nM; in test [2] it was 3 nM.
